# pKi: −log10 of the molar value. Activity calls are given as the source filed them. The rule behind the calls is not given here.
# Tests used:
# D(3) dopamine receptor [1] = molecular target: T1, D(3) dopamine receptor (Homo sapiens, UniProt P35462); experiment: Partial agonist activity at dopamine D3 receptor (unknown origin) expressed in HEK293 cells at 10 pM to 100 uM after 30 mins by beta-arrestin recruitment assay relative to dopamine; format: cell-based
# D(3) dopamine receptor [2] = molecular target: T1, D(3) dopamine receptor; experiment: Partial agonist activity at dopamine D3 receptor (unknown origin) expressed in HEK293 cells at 10 pM to 100 uM after 2 mins by BRET-based Go activation assay relative to dopamine; format: cell-based; details: for Emax: 10 pM
# D(3) dopamine receptor [3] = molecular target: T1, D(3) dopamine receptor; experiment: Displacement of [3H]-N-methylspiperone from human dopamine D3 receptor expressed in HEK293 cells after 1 hr by MicroBeta microplate counting method; format: cell-based
# Homo sapiens = species on record: Homo sapiens; experiment: Selectivity ratio of Ki for human dopamine D2 receptor to Ki for human dopamine D3 receptor
# D(2) dopamine receptor = D(2) dopamine receptor (Homo sapiens, UniProt P14416); experiment: Displacement of [3H]-N-methylspiperone from human dopamine D2 receptor expressed in HEK293 cells after 1 hr by MicroBeta microplate counting method; format: cell-based
# Chain of D(2) dopamine receptor (P14416 whole entry): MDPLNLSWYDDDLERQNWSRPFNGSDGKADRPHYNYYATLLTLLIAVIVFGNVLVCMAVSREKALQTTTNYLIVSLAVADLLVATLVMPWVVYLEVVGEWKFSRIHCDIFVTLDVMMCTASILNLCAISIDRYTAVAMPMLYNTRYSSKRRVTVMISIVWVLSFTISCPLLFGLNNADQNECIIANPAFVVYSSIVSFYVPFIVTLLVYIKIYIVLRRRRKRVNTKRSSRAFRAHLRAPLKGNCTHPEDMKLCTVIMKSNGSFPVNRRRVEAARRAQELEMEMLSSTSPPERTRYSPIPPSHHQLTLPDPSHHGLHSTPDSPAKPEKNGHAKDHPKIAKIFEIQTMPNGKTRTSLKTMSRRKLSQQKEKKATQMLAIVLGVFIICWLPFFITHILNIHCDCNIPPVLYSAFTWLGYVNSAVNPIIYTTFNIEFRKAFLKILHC
# T1 sequence (P35462 whole entry): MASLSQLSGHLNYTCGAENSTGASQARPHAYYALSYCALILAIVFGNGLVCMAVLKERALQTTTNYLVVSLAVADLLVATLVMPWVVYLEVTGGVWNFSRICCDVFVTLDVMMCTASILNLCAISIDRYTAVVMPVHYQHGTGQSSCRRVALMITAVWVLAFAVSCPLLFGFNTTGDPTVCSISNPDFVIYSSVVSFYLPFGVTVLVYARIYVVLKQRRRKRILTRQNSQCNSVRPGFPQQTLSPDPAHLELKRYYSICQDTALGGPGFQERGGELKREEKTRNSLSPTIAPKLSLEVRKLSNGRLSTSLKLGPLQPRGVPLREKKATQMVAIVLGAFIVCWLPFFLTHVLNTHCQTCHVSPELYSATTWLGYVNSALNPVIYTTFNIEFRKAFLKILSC
Structure (SMILES),Activity (D(3) dopamine receptor [1]),Emax (D(3) dopamine receptor [2]) [%],pKi (D(3) dopamine receptor [3]),Ratio Ki (Homo sapiens),pKi (D(2) dopamine receptor),Activity (D(3) dopamine receptor [2]; 10 pM to 100 uM)
O=C(NCC[C@H](O)CN1CCN(c2cccc(Cl)c2Cl)CC1)c1cc2ccccc2[nH]1,Active,55.7,,,,
O=C(NCC[C@H](O)CN1CCN(c2cccc(Cl)c2Cl)CC1)c1cnc2ccccc2c1,Active,53.9,7.63,14,6.50,
O=C(NCC[C@@H](O)CN1CCN(c2cccc(Cl)c2Cl)CC1)c1cc2ccccc2[nH]1,inactive,14.9,,,,
C[C@@H](O)CN1CCN(c2cccc(Cl)c2Cl)CC1,,,6.43,4,5.85,
O=C(NCCCCN1CCN(c2cccc(Cl)c2Cl)CC1)c1cnc2ccccc2c1,,20.9,9.76,58,8.00,
O=C(NCCC(O)CN1CCN(c2cccc(Cl)c2Cl)CC1)c1cnc2ccccc2c1 (racemic),,,8.37,63,6.57,
C[C@H](O)CN1CCN(c2cccc(Cl)c2Cl)CC1,,,7.12,4,6.50,
CCCCN1CCN(c2cccc(Cl)c2Cl)CC1,,,,2,,inactive
CC[C@H](O)CN1CCN(c2cccc(Cl)c2Cl)CC1,Active,58.6,7.46,3,7.03,
CC[C@@H](O)CN1CCN(c2cccc(Cl)c2Cl)CC1,inactive,11.6,6.92,5,6.23,
O=C(NCC[C@@H](O)CN1CCN(c2cccc(Cl)c2Cl)CC1)c1cnc2ccccc2c1,inactive,19.9,8.39,49,6.69,

# From ChEMBL document CHEMBL4052584, “Toward Understanding the Structural Basis of Partial Agonism at the Dopamine D3 Receptor” (J Med Chem, 2017)
